Legend:
[1] = Pharmacokinetics (oral) in SD rats; assay type: in vivo; settings: for AUCu: 1.9 / 1.8 mg/kg, AUCu = AUC0-inf × Unbound PPB (Rat in vivo test PPB)
Protocol: The compound of formula (I) and the reference example were mixed with vehicle 10% NMP/60% PEG400/30% H2O, vortexed and sonicated to prepare a 2 mg/mL clear solution. SD rats aged 7 to 10 weeks were selected, and the candidate compound solution was administered orally.
Whole blood was collected for a certain period of time to prepare plasma, and the drug concentration was analyzed by LC-MS/MS method, and the pharmacokinetic parameters were calculated by Phoenix WinNonlin software (Pharsight, USA).

BTK^C481S = BTK^C481S (Homo sapiens (Human), UniProt Q06187, C481S); test: BTK enzyme activity test (33P-ATP filtration-binding); assay type: biochemical
Protocol: The specific experimental process of BTK enzyme activity test is as follows:
Buffer: 20 mM hydroxyethylpiperazine ethylsulfuric acid (Hepes) (pH 7.5), 10 mM magnesium chloride, 1 mM ethylene glycol bisaminoethyl ether tetraacetic acid (EGTA), 0.02% polyoxyethylene lauryl ether (Brij35), 0.02 mg/mL BSA, 0.1 mM sodium vanadate (Na3VO4), 2 mM dithiothreitol (DTT), 1% DMSO, 200 μM adenosine triphosphate (ATP).
1. Configuring the substrate in the newly prepared reaction buffer
2. Adding the required cofactors to the above substrate solution
3. Adding the kinase BTK^C481S to the above substrate solution and mixing well
4. Adding the compound dissolved in DMSO to the kinase reaction mixture through
Echo550 (Acoustic technology; nanoliter range), and incubating at room temperature for 20 minutes
5. Adding ^33P-ATP (with a specific activity of 10 μCi/μL) into the reaction mixture to initiate the reaction
6. Incubating at room temperature for 2 hours
7. Detection of radioactivity by filtration-binding method
8. Kinase activity data represent the percentage of remaining kinase activity in the test sample compared to the vehicle (dimethyl sulfoxide) reaction.

Unbound PPB (Mouse) = assay type: in vitro ADME
[2] = Pharmacokinetics (oral administration) in CD-1 mice; assay type: in vivo; settings: for AUCu: AUCu = AUC0-inf × Unbound PPB (Mouse)
Protocol: The compound of formula (I) and the reference example were mixed with vehicle 10% NMP/60% PEG400/30% H2O, vortexed and sonicated to prepare a 0.6 mg/mL clear solution. Male CD-1 mice aged 7 to 10 weeks were selected, and the candidate compound solution was administered orally by gavage at a dose of 3.1 mg/kg. Whole blood was collected for a certain period of time to prepare plasma, and the drug concentration was analyzed by LC-MS/MS. Pharmacokinetic parameters were calculated with Phoenix WinNonlin software (Pharsight, USA).

[3] = Pharmacokinetics (intravenous) in CD-1 mice; assay type: in vivo; settings: for AUCu: AUCu = AUC0-inf × Unbound PPB (Mouse)
Protocol: The compound of formula (I) and the reference example were mixed with vehicle 0.10 mg/mL in 10% NMP/60% PEG400/30% H2O, vortexed and sonicated to prepare a 0.1 mg/mL clear solution. Select CD-1 male mice aged 7 to 10 weeks and administer the candidate compound solution intravenously at a dose of 0.21 mg/kg.
The whole blood was collected for a certain period of time to prepare plasma, and the drug concentration was analyzed by LC-MS/MS method. Pharmacokinetic parameters were calculated by Phoenix WinNonlin software (Pharsight, USA).

[4] = Pharmacokinetics (intravenous) in SD rats; assay type: in vivo; settings: for AUCu: 0.51 / 0.49 mg/kg, AUCu = AUC0-inf × Unbound PPB (Rat in vivo test PPB)
Protocol: The compound of formula (I) and the reference example were mixed with vehicle 0.10 mg/mL in 10% NMP/60% PEG400/30% H2O, vortexed and sonicated to prepare a 0.5 mg/mL clear solution. SD rats aged 7 to 10 weeks were selected and given the candidate compound solution intravenously. Whole blood was collected for a certain period of time to prepare plasma, and the drug concentration was analyzed by LC-MS/MS. Pharmacokinetic parameters were calculated with Phoenix WinNonlin software (Pharsight, USA).

[5] = Unbound PPB (Rat in vivo test PPB); assay type: in vitro ADME
[6] = Competitive experiment of crystal form B and crystal form C (suspension in methyl tert-butyl ether); assay type: physicochemical
Protocol: Three groups of 30 mg crystal form B and 30 mg crystal form C compounds were respectively added to different 2.0 mL glass vials, and 0.6 mL methyl tert-butyl ether was added to obtain a suspension, and the suspension samples were placed in the magnetic heating stirrer was stirred at 20° C., 40° C. and 60° C. for 16 hours, the suspension was centrifuged to obtain a white solid, and the crystal form C of the compound of formula (I) was obtained by vacuum drying to constant weight.

[7] = Hygroscopicity research by dynamic vapor adsorption (DVS); assay type: physicochemical; settings: 25° C. and 80% RH
Protocol: The vapor adsorption analysis (DVS) method of this application.
Instrument model: SMS DVS Advantage dynamic vapor adsorption instrument
Test conditions: Take a sample (10-15 mg) and place it in a DVS sample tray for testing.
The detailed DVS parameters are as follows:
Balance: dm/dt=0.01%/min (shortest: 10 min, longest: 180 min)
RH (%) test range: 0%-90%-0%
SMS DVS Advantage dynamic vapor adsorption instrument
Taking 10-15 mg of compound crystal form C of formula (I) and placing it in a DVS sample tray for testing.

[8] = system: human B-cell lymphoma OCI-LY10 cells; test: OCI-LY10 SCID mouse subcutaneous xenograft tumor model; assay type: in vivo, SCID mice; settings: for T/C / TGI: Day 20; for Tumor volume (Day 0) / Tumor volume (Day 20): Mean ± SEM
Protocol: OCI-LY10SCID mouse xenograft tumor model:
Experimental Method: Subcutaneous Xenograft Tumor Model in Mice with Human B-Cell Lymphoma
Tumor cells in the logarithmic growth phase were collected and resuspended in IMDM basal medium. Matrigel was added to adjust the concentration of cells to 4×10^7/Ml. Under sterile conditions, SCID mice were inoculate with cell suspension subcutaneously on the right back at a concentration of 4×10^6/0.1 mL/mouse. When the animal tumor reached about 131.55-227.87 mm^3, the tumor-bearing mice were divided into 5 groups according to the size of the tumor volume, with 8 […] in each group. On the day of the experiment, the animals were given corresponding drugs according to the groups.
During the experiment, the body weight and tumor size of the animals were measured 3 times a week, and the clinical symptoms of the animals were observed and recorded every day, and each administration was referred to the last weighed animal body weight.
The length (a) and width (b) of the tumor were measured with a digital vernier caliper, and tumor volume (Tumor volume, TV) was calculated according to the formula below: […]

[9] = Solid stability test (XRPD) under high temperature, high humidity and strong light; assay type: physicochemical
Protocol: According to the “Guiding Principles for Stability Testing of Raw Materials and Preparations” (Chinese Pharmacopoeia 2015 Edition Four General Rules 9001), the crystal form C of the compound of formula (I) was investigated for its stability under high temperature (60° C., open), high humidity (a. room temperature/relative humidity 92.5%, open; b. 40° C./75% relative humidity, open; c. 60° C./75% relative humidity, open) and the stability under strong light (5000 1×, airtight).
The crystal form C (15 mg) of the compound of formula (I) is weighed and placed on the bottom of the glass sample bottle to be spread into a thin layer. Samples placed under high-temperature and high-humidity conditions are sealed with aluminum foil, and small holes are formed on the aluminum foil to ensure that the samples can fully contact with the ambient air; and the sample placed under the strong illumination condition is sealed by a threaded bottle cap. Samples placed under different conditions were sampled and tested (XRPD) on the 5th day, 10th day, and 1 month. The test results were compared with the initial test results on day 0.

[10] = rat, plasma, SD rats, 1.9 mg/kg (Reference Example) / 1.8 mg/kg (Compound of Formula (I))
[11] = mouse, plasma, 3.1 mg/kg, CD-1 male mice
[12] = mouse, plasma, 0.21 mg/kg, CD-1 male mice
[13] = rat, plasma, SD rats, 0.51 mg/kg (Reference Example) / 0.49 mg/kg (Compound of Formula (I))

Sequence of BTK^C481S (Q06187 whole entry C481S): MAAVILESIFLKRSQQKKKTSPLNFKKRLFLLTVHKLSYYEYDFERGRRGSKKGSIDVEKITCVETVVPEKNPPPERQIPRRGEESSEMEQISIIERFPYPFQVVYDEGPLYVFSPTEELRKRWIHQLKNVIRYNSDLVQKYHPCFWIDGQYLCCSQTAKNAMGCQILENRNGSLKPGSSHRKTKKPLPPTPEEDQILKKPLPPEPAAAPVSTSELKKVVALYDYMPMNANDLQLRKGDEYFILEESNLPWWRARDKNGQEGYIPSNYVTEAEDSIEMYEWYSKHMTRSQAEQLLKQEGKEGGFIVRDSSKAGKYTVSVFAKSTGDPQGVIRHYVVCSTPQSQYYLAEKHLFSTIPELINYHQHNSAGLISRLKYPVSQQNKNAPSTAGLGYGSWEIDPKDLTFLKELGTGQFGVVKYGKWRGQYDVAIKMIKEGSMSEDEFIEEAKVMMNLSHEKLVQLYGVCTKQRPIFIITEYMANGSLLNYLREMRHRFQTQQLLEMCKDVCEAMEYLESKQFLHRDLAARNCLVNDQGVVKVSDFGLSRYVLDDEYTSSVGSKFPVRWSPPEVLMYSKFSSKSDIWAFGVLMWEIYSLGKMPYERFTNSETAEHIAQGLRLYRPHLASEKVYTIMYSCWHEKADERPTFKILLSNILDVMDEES

CO[C@@H]1C[C@@H](CO)OC[C@@H]1Nc1ncnc2[nH]cc(C(=O)c3ccc(Oc4ccccc4)cc3Cl)c12 [Compound of formula (I)]
Free drug concentration in rat plasma, conclusion [1]: higher than that of the reference compound
AUCu ([1]; SD rats): 0.0078 µM·h
Inhibitory effect on BTK C481S mutation, conclusion (BTK^C481S): strong inhibitory effect
Unbound PPB (Unbound PPB (Mouse); Table 10): 0.4%
Unbound PPB (Unbound PPB (Mouse); Table 11): 0.4%
Free drug concentration in mouse plasma, conclusion [2]: higher than that of the reference compound
AUCu ([2]; 3.1 mg/kg, CD-1 male mice): 0.133 µM·h
Free drug concentration in mouse plasma, conclusion [3]: higher than that of the reference compound
AUCu ([3]; 0.21 mg/kg, CD-1 male mice): 0.0124 µM·h
Free drug concentration in rat plasma, conclusion [4]: higher than that of the reference compound
AUCu ([4]; SD rats): 0.0034 µM·h
Unbound PPB ([5]; Table 12): 0.2%
Unbound PPB ([5]; Table 13): 0.2%

CO[C@@H]1C[C@@H](CO)OC[C@@H]1Nc1ncnc2[nH]cc(C(=O)c3ccc(Oc4ccccc4)cc3Cl)c12 [Form C]
Relative stability compared with Form B, conclusion [6]: Conclusion: Compared with Form B, Form C is more stable.
Hygroscopicity classification [7]: slightly hygroscopic (2% > ΔW % ≥ 0.2%)
ΔW (hygroscopic weight gain) ([7]; DVS): 0.262%
T/C ([8]; 15 mg/kg PO QD × 21): 65.50%
TGI ([8]; 15 mg/kg PO QD × 21): 49.61%
Tumor volume (Day 0) ([8]; 15 mg/kg PO QD × 21): 182.02 ± 9.76 mm^3
Tumor volume (Day 20) ([8]; 15 mg/kg PO QD × 21): 471.07 ± 16.55 mm^3
T/C ([8]; 30 mg/kg PO QD × 21): 45.05%
TGI ([8]; 30 mg/kg PO QD × 21): 71.75%
Tumor volume (Day 0) ([8]; 30 mg/kg PO QD × 21): 180.91 ± 9.67 mm^3
Tumor volume (Day 20) ([8]; 30 mg/kg PO QD × 21): 342.95 ± 20.06 mm^3
T/C ([8]; 45 mg/kg PO QD × 21): 29.25%
TGI ([8]; 45 mg/kg PO QD × 21): 92.82%
Tumor volume (Day 0) ([8]; 45 mg/kg PO QD × 21): 180.19 ± 10.07 mm^3
Tumor volume (Day 20) ([8]; 45 mg/kg PO QD × 21): 221.38 ± 37.11 mm^3
Tumor inhibitory effect versus reference compound, conclusion ([8]; at the same dose): obviously better than that of reference compound
Tumor growth inhibition, conclusion ([8]; inhibitory effect positively correlated with dose): significantly inhibit tumor growth
Crystal Form (XRPD) ([9]; 0 day, initial): Form C
Crystal Form (XRPD) ([9]; High humidity (40° C./75% relative humidity, open), 1 month): Form C
Crystal Form (XRPD) ([9]; High humidity (60° C./75% relative humidity, open), 1 month): Form C
Crystal Form (XRPD) ([9]; High humidity (room temperature/relative humidity 92.5%, open), 5th day): Form C
Crystal Form (XRPD) ([9]; High humidity (room temperature/relative humidity 92.5%, open), 10th day): Form C
Crystal Form (XRPD) ([9]; High temperature (60° C., open), 5th day): Form C
Crystal Form (XRPD) ([9]; High temperature (60° C., open), 10th day): Form C
Crystal Form (XRPD) ([9]; Strong light (5000 lx, airtight), 10th day): Form C
Solid stability, conclusion ([9]; high temperature, high humidity and strong light conditions): Conclusion: The crystal form C of the compound of formula (I) has good stability under high temperature, high humidity and strong light conditions.

O=C(c1ccc(Oc2ccccc2)cc1Cl)c1c[nH]c2ncnc(N[C@@H]3CC[C@@H](CO)OC3)c12 [Reference Example]
AUCu ([1]; SD rats): 0.005 µM·h
AUC(0-inf) [1, 10]: 5.03 µM·h
Cmax [1, 10]: 607 nM
half-life [1, 10]: 2.41 h
Unbound PPB (Unbound PPB (Mouse); Table 10): 0.2%
Unbound PPB (Unbound PPB (Mouse); Table 11): 0.2%
AUCu ([2]; 3.1 mg/kg, CD-1 male mice): 0.0882 µM·h
AUC(0-inf) [2, 11]: 44.1 µM·h
Cmax [2, 11]: 3840 nM
half-life [2, 11]: 3.75 h
T/C ([8]; 45 mg/kg PO QD × 21): 42.45%
TGI ([8]; 45 mg/kg PO QD × 21): 74.47%
Tumor volume (Day 0) ([8]; 45 mg/kg PO QD × 21): 183.86 ± 9.48 mm^3
Tumor volume (Day 20) ([8]; 45 mg/kg PO QD × 21): 330.27 ± 19.35 mm^3
AUCu ([3]; 0.21 mg/kg, CD-1 male mice): 0.007 µM·h
AUC(0-inf) [3, 12]: 3.49 µM·h
C0 [3, 12]: 1040 nM
Vd [3, 12]: 0.7 L/kg
clearance [3, 12]: 2.01 mL/min/kg
half-life [3, 12]: 4.34 h
AUCu ([4]; SD rats): 0.0019 µM·h
AUC(0-inf) [4, 13]: 1.92 µM·h
C0 [4, 13]: 800 nM
Vd [4, 13]: 1.57 L/kg
clearance [4, 13]: 9.08 mL/min/kg
half-life [4, 13]: 2.02 h
Unbound PPB ([5]; Table 12): 0.1%
Unbound PPB ([5]; Table 13): 0.1%
